Experimental data reported in patent publication US8501750B2, “Heterocyclic compound and use thereof” (Takeda Pharmaceutical Company Limited, priority 2007, dated 2013).

Key:
[1] = molecular target: PPARγ (Homo sapiens (Human), UniProt P37231); assay: PPARγ activating action (luciferase reporter in PPARγ:RXRα:4ERPP/CHO-K1 cells); format: cell-based; conditions: CHO-K1, 24 h; test compound 1 μM; luciferase activity relative to control compound X (1 μM) = 100%, non-administration group = 0%; read-out: PPARγ activating action (activation % (1 μM))
Summary of the method: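 Stably transfected CHO-K1 cells carrying PPARγ:RXRα and a 4ERPP luciferase reporter, selected with Geneticin and Zeocin, were exposed to compound for 1 day at 37 °C. The medium was Ham's F12 with 0.1% fatty acid-free BSA. Luciferase activity was then measured as the read-out.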

[2] = molecular target: AT1 receptor (Homo sapiens (Human), UniProt P30556); assay: AT1 receptor binding inhibitory action
AT1 receptor, sequence (P30556 whole entry): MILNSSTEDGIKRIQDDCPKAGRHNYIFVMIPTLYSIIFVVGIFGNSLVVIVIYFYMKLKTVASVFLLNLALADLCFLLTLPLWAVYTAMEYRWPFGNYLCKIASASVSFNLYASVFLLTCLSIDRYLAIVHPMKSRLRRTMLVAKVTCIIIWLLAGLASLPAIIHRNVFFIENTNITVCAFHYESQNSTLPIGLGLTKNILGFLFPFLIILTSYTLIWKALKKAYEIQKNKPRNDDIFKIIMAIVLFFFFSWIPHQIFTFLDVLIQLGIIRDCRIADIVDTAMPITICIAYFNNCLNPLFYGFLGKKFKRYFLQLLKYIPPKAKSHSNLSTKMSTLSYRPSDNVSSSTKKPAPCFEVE

PPARγ, sequence (P37231 29-505): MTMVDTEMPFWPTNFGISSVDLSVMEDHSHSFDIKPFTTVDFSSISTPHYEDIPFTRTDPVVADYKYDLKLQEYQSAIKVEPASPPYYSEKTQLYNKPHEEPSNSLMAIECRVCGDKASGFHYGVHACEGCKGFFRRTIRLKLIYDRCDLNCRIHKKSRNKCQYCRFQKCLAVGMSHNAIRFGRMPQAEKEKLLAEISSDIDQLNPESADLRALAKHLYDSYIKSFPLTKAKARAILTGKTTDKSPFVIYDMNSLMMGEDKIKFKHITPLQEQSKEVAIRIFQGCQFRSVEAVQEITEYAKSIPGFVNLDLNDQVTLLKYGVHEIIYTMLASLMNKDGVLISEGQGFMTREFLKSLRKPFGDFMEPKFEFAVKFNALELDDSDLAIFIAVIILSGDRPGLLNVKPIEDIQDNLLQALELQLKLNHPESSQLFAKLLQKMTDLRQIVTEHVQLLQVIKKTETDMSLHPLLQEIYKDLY
PPARγ, sequence (P19793 whole entry partner): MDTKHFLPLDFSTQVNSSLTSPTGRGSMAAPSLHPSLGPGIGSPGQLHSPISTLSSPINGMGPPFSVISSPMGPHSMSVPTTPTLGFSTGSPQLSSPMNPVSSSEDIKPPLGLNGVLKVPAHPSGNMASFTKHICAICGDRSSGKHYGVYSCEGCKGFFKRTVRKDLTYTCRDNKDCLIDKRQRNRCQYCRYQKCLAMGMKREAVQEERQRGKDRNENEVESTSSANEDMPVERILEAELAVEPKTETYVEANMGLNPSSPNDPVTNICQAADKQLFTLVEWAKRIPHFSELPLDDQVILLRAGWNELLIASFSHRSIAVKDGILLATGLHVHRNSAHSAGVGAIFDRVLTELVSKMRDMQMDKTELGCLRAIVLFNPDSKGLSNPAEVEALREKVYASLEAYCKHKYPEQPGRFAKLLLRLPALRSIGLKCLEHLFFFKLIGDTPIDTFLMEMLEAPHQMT

Compound | activation at 1 µM [1] [%] | IC50 [2] [nM]
C=CCON=C(Cn1c(=O)c2cc(CC)sc2n(Cc2ccc(-c3ccccc3-c3noc(=O)[nH]3)cc2)c1=O)c1ccc(OC)cc1 [Ex. 214, 3-[2-[(allyloxy)imino]-2-(4-methoxyphenyl)ethyl]-6-ethyl-1-{[2′-(5-oxo-4,5-dihydro-1,2,4-oxadiazol-3-yl)biphenyl-4-yl]methyl}thieno[2,3-d]pyrimidine-2,4(1H,3H)-dione] | 41 | 1.8
CCc1cc2c(=O)n(CC(=NOC)c3ccccc3)c(=O)n(Cc3ccc(-c4ccccc4-c4noc(=O)[nH]4)cc3)c2s1 [Ex. 215, 6-ethyl-3-[2-(methoxyimino)-2-phenylethyl]-1-{[2′-(5-oxo-4,5-dihydro-1,2,4-oxadiazol-3-yl)biphenyl-4-yl]methyl}thieno[2,3-d]pyrimidine-2,4(1H,3H)-dione] | 27 | 1.3
CCc1cc2c(=O)n(CC(=O)c3cccs3)c(=O)n(Cc3ccc(-c4ccccc4-c4noc(=O)[nH]4)cc3)c2s1 [Ex. 221, 6-ethyl-1-{[2′-(5-oxo-4,5-dihydro-1,2,4-oxadiazol-3-yl)biphenyl-4-yl]methyl}-3-[2-oxo-2-(2-thienyl)ethyl]thieno[2,3-d]pyrimidine-2,4(1H,3H)-dione] | 47 | 1.4
CCc1cc2c(=O)n(CCc3ccc(F)cc3)c(=O)n(Cc3ccc(-c4ccccc4-c4noc(=O)[nH]4)cc3)c2s1 [Example 56, 6-ethyl-3-[2-(4-fluorophenyl)ethyl]-1-{[2′-(5-oxo-4,5-dihydro-1,2,4-oxadiazol-3-yl)biphenyl-4-yl]methyl}thieno[2,3-d]pyrimidine-2,4(1H,3H)-dione] | 65 | 0.34

Further molecules by falling IC50 [2], results first:

activation at 1 µM [1] [%] | IC50 [2] [nM] | Compound
49 | 2 | CCc1cc2c(=O)n(CC(=NOC(C)C)c3ccc(OC)cc3)c(=O)n(Cc3ccc(-c4ccccc4-c4noc(=O)[nH]4)cc3)c2s1 [Ex. 213, 6-ethyl-3-[2-(isopropoxyimino)-2-(4-methoxyphenyl)ethyl]-1-{[2′-(5-oxo-4,5-dihydro-1,2,4-oxadiazol-3-yl)biphenyl-4-yl]methyl}thieno[2,3-d]pyrimidine-2,4(1H,3H)-dione]
32 | 1.9 | CCc1cc2c(=O)n(CC(=O)c3sccc3Br)c(=O)n(Cc3ccc(-c4ccccc4-c4noc(=O)[nH]4)cc3)c2s1 [Ex. 222, 3-[2-(3-bromo-2-thienyl)-2-oxoethyl]-6-ethyl-1-{[2′-(5-oxo-4,5-dihydro-1,2,4-oxadiazol-3-yl)biphenyl-4-yl]methyl}thieno[2,3-d]pyrimidine-2,4(1H,3H)-dione]
39 | 1.6 | CCc1cc2c(=O)n(CC(C)(C)c3ccccc3)c(=O)n(Cc3ccc(-c4ccccc4-c4noc(=O)[nH]4)cc3)c2s1 [Ex. 225, 6-ethyl-3-(2-methyl-2-phenylpropyl)-1-{[2′-(5-oxo-4,5-dihydro-1,2,4-oxadiazol-3-yl)biphenyl-4-yl]methyl}thieno[2,3-d]pyrimidine-2,4(1H,3H)-dione]
